# Data as given in ChEMBL document CHEMBL3886179, “Substituted 6, 7-dialkoxy-3-isoquinoline derivatives as inhibitors of phosphodiesterase 10 (PDE 10A)” (2015).
# pIC50: −log10 of the molar value. Several values for one entry are separate records, joined by “and”; a condition that tells them apart may be missing. Equal entries are not always repeated.
# Biological target: cAMP and cAMP-inhibited cGMP 3',5'-cyclic phosphodiesterase 10A (Homo sapiens, UniProt Q9Y233)
# Assay: Diaxonhit Phosphodiesterase Assay: The phosphodiesterase assay was developed using the LANCE cAMP kit (PerkinElmer). The assay buffer contained HBSS with 5 mM HEPES, 0.1% BSA, and 1.5 mM MgCl2, pH 7.4. PDE10A (BPS Bioscience) was used at 200 pg/well (with a specific activity of 3200 pmole/min/ug with assay conditions: 10 mM Tris-HCl, pH 7.4, 10 mM MgCl2, 1 mM MnCl2, 200 uM cAMP, 2.5 kU 5' nucleotidase, 37° C., 20 min) and PDE4D3 (BPS Bioscience) was used at 100 pg/well (with a specific activity of 32713 pmole/min/ug with assay conditions: 10 mM Tris-HCl, pH 7.4, 10 mM MgCl2, 1 mM MnCl2, 200 uM cAMP, 2.5 kU 5' nucleotidase, 37° C., 20 min). The Biotin-cAMP tracer, supplied in 10 mmol/L Tris-HCl buffered (pH 8.0) salt solution with 1 mmol/L ethylenediaminetetraacetic acid (EDTA), 0.1% bovine serum albumin (BSA), and 0.05% sodium azide, is used at a dilution of 1/375. The assay detection mixture contained the LANCE Eu-W8044 labeled streptavidin 1/2250 (supplied in 50 mmol/L Tris-HCl buffer).
# cAMP and cAMP-inhibited cGMP 3',5'-cyclic phosphodiesterase 10A, sequence (Q9Y233 whole entry): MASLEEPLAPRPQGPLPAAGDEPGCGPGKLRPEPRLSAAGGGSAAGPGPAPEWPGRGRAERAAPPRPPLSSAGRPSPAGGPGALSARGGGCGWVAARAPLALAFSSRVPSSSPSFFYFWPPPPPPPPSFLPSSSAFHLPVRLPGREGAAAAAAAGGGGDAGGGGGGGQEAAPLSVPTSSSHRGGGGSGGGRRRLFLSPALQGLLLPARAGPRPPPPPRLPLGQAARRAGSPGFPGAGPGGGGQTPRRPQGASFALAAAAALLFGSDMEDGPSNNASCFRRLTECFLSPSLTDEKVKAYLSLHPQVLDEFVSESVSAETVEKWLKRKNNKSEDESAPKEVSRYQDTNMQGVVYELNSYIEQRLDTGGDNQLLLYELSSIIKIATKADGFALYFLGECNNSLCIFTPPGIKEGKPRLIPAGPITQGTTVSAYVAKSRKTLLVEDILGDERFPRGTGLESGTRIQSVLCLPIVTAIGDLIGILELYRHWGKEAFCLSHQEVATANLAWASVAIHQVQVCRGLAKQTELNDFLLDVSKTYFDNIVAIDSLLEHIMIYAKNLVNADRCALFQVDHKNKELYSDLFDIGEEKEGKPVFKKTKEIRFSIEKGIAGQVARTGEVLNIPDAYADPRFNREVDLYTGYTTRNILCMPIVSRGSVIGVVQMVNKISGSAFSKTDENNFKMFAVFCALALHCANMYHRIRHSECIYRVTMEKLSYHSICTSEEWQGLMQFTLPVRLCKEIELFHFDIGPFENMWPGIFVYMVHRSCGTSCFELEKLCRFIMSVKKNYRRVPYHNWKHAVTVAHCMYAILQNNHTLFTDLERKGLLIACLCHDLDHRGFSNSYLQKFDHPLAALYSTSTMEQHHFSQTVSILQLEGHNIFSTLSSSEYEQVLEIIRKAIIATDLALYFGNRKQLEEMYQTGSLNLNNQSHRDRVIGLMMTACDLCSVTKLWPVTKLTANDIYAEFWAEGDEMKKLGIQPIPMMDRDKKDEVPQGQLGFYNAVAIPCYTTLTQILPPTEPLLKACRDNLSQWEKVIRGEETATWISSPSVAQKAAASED
row,SMILES,pIC50
1,COc1cc2cncc(Cc3ccc4c(c3)CCN4C)c2cc1OC,6.88
2,CCc1ncc(Cc2ccc3cccc(OCC(N)=O)c3n2)c2cc(OC)c(OC)cc12,7.70
3,COc1cc2cncc(Cc3ccc4ccccc4n3)c2cc1OC,6.68
4,COc1cc2cncc(Cc3ccc4cccc(NS(N)(=O)=O)c4n3)c2cc1OC,9.38
5,CCCc1ncc(Cc2coc3ccc(C)cc3c2=O)c2cc(OC)c(OC)cc12,7.51
6,CCCc1ncc(Cc2coc3ccc(F)cc3c2=O)c2cc(OC)c(OC)cc12,7.27
7,CCCc1ncc(Cc2ccc3cccc(OCC(N)=O)c3n2)c2cc(OC)c(OC)cc12,8.85 and 8.28
8,CCCc1ncc(Cc2ccc3oc(=O)[nH]c3c2)c2cc(OC)c(OC)cc12,7.19
9,CCc1ncc(Cc2cnc3ccc(O)cc3c2)c2cc(OC)c(OC)cc12,7.55
10,CCCc1ncc(Cc2ccc3cccc(OCCC(=O)O)c3n2)c2cc(OC)c(OC)cc12,8.64
11,CCOc1cc2c(Cc3cnc4ccccc4c3)cncc2cc1OC,7.04
12,COc1cc2cncc(Cc3cnc4ccc(O)cc4c3)c2cc1OC,8.54
13,COc1cc2cncc(Cc3cnc4ccc(OCC(N)=O)cc4c3)c2cc1OC,8.60
14,CCCc1ncc(Cc2ccc3cccc(NS(N)(=O)=O)c3n2)c2cc(OC)c(OC)cc12,9.09
15,CCc1ncc(Cc2ccc3cccc(NS(N)(=O)=O)c3n2)c2cc(OC)c(OC)cc12,9.28
16,CCCc1ncc(Cc2cc3cc(OCC)ccc3nc2O)c2cc(OC)c(OC)cc12,7.00
17,CCc1ncc(Cc2ccc3cccc(C(N)=O)c3n2)c2cc(OC)c(OC)cc12,7.11
18,CCc1ncc(Cc2ccc3cccc(OCCC(=O)O)c3n2)c2cc(OC)c(OC)cc12,8.30
19,CCCc1ncc(Cc2ccc3c(c2)oc(=O)n3C)c2cc(OC)c(OC)cc12,8.36
20,CCCc1ncc(Cc2ccc3oc4ccccc4c3c2)c2cc(OC)c(OC)cc12,6.56
21,COc1cc2c(Cc3cnc4cc(C)ccc4c3)cnc(C)c2cc1OC,8.15
22,CCc1ncc(Cc2ccc3cccc(NC(=O)C(N)=O)c3n2)c2cc(OC)c(OC)cc12,7.77

# Further compounds by rising pIC50, results first:
row,pIC50,SMILES
1,6.43,COc1cc2c(Cc3ccc4nc(C)ccc4c3)cnc(C3CCCCC3)c2cc1OC
2,6.67,COc1cc2cncc(Cc3ccc4cccc(OCc5ccncc5)c4n3)c2cc1OC
3,6.72,CCc1ncc(Cc2ccc3cccc(OCCO)c3n2)c2cc(OC)c(OC)cc12
4,6.81,CCCCc1ncc(Cc2ccc3nc(C)ccc3c2)c2cc(OC)c(OC)cc12
5,6.82,COc1cc2c(Cc3ccc4cccc(O)c4n3)cnc(C3CC3)c2cc1OC
6,6.83,COc1cc2c(Cc3ccc4nc(C)ccc4c3)cnc(-c3ccccc3)c2cc1OC
7,6.99,CCCc1ncc(Cc2ccc3c(C(F)(F)F)ccc(OCC(N)=O)c3n2)c2cc(OC)c(OC)cc12
8,7.27,COc1ccc2cc(Cc3cncc4cc(OC)c(OC)cc34)ccc2c1
9,7.31,CCOc1cccc2ccc(Cc3cncc4cc(OC)c(OC)cc34)nc12
10,7.31,COc1cc2cncc(Cc3ccc4oc(-c5ccc(N)cc5)nc4c3)c2cc1OC
11,7.38,COc1cc2c(Cc3ccc4cccc(O)c4n3)cnc(C)c2cc1OC
12,7.39,COc1cc2cnc(C)c(Cc3ccc4cccc(O)c4n3)c2cc1OC
13,7.51,COc1cc2c[n+]([O-])cc(Cc3ccc4oc5ccccc5c4c3)c2cc1OC
14,7.60,COc1ccc2nc(O)c(Cc3cncc4cc(OC)c(OC)cc34)cc2c1
15,7.64,COc1cc2cncc(Cc3ccc4cccc(O)c4n3)c2cc1OC
16,7.68,COc1cc2cncc(Cc3ccc4cccc(OCC(N)=O)c4n3)c2cc1OC
17,7.89,CCCc1ncc(Cc2cnc3ccc(O)c(C(F)(F)F)c3c2)c2cc(OC)c(OC)cc12
18,8.01,CCCc1ncc(Cc2cc3cc(OC)ccc3nc2NCC)c2cc(OC)c(OC)cc12
19,8.11,CCn1c(=O)oc2ccc(Cc3cncc4cc(OC)c(OC)cc34)cc21
20,8.25,COCc1ncc(Cc2cnc3ccc(O)cc3c2)c2cc(OC)c(OC)cc12
21,9.15,COc1cc2c(Cc3ccc4cccc(NS(N)(=O)=O)c4n3)cnc(C)c2cc1OC
